Nine molecules from article PMC6403271, “Characterization, mechanism of action and optimization of activity of a novel peptide-peptoid hybrid against bacterial pathogens involved in canine skin infections” (Scientific Reports, 2019) can be followed below.

For one series, the system named is MRSP C22963. Type of series: cell-based, Staphylococcus pseudintermedius. Particulars: 18 h. How it is done: (§1) Activity of B1 was tested on 50P. aeruginosa isolates and 57S. pseudintermedius isolates (including 7 MRSP) that had been isolated in the diagnostic laboratory Sund Vet Diagnostik (University of Copenhagen) from various infections in dogs between 2009 and 2011. Representative MRSP (C22963), MSSA, and P. aeruginosa (26314) were used for testing the first set of B1 analogues.
(§2) MIC determination was performed by broth microdilution according to the Clinical and Laboratory Standard Institute (CLSI, M31-A3, 2008)[62]. In brief, each bacterial strain was diluted to concentration of 5 × 10^5 CFU/mL in Mueller Hinton broth II (MHB II) media (Oxoid) and added to a two-fold serial dilution of peptides and peptide-peptoid hybrids concentrations ranging from 1 to 64 µg/ml in 96-well plates (Nunc Internationals, Rochester, NY). The MICs were determined as a lowest concentration showing no visible growth after incubation for 18 hours at 37 °C. Experiments were performed in triplicates on two different days.

The test system of another series is MSSA (ATCC 29213). Type of series: cell-based, Staphylococcus aureus. The note with it: ATCC 29213, 18 h. How it is done:
as §1, §2

Another series concerns P. aeruginosa (26314). Type of series: cell-based, Pseudomonas aeruginosa. Particulars: 26314, 18 h. The method, then: Activity of B1 was tested on […]. aeruginosa isolates and […]. pseudintermedius isolates (including 7 MRSP) that had been isolated in the diagnostic laboratory Sund Vet Diagnostik (University of Copenhagen) from various infections in dogs between 2009 and 2011. Representative […], and P. aeruginosa (26314) were used for testing the first set of B1 analogues. For antibacterial spectrum the following strains were used: Corynebacterium auriscanis, 31551, (54 C6, dog, ear, 2013); Enterococcus faecalis, 27404, (17 C7, dog, wound, 2011); Enterococcus faecium, 30951, (24 C1, dog, ear, 2013); Streptococcus canis, 26740-1, (14 H1, dog, ear, 2010); Staphylococcus aureus, 27266, (16 G9, dog, skin, 2010); Staphylococcus aureus, 27266, (16 G9, dog, skin, 2010); Staphylococcus pseudintermedius 22963, (3 B9, dog, 2007). Acinetobacter baumannii, 27065, (16 D1, dog, wound, 2010); E. coli, 30235, 23 A6, dog, wound, 2012; Klebsiella pneumoniae, 26233, (11 H5, dog, wound, 2010); Pasteurella canis, 31096, (24 C8, dog, skin, 2013); Proteus mirabilis, 25178, (9 A4, dog, ear, 2009); Pseudomonas aeruginosa 26314, 12 C5, dog, urine, 2010). MIC determination was performed by broth microdilution according to the Clinical and Laboratory Standard Institute (CLSI, […]-A3, 2008)[62]. In brief, each bacterial strain was diluted to concentration of 5 × 10^5 CFU/mL in Mueller Hinton broth II (MHB II) media (Oxoid) and added to a two-fold serial dilution of peptides and peptide-peptoid hybrids concentrations ranging from 1 to 64 μg/ml in 96-well plates (Nunc Internationals, Rochester, NY). The MICs were determined as a lowest concentration showing no visible growth after incubation for 18 hours at 37 °C. Experiments were performed in triplicates on two different days.

Series [1] is classed as cell-based, human. Particulars: human. The method, then: (§3) Briefly, two-fold serial dilutions (2.35 to 150 μM) of compounds in phosphate buffer saline (PBS) were mixed with equal volume of 0.5% v/v suspension of fresh human red blood cells (RBC) in the same buffer. After 1 h incubation at 37 °C, plates were centrifuged and aliquots of the supernatants were transferred to clear 96-well plates. Absorbance at 414 nm was measured and normalized using a negative (PBS, 0%) and a positive (melittin, 100%) control. The EC10 and EC50 are concentrations at which 10% and 50% of RBC were lysed, respectively, as interpolated graphically by the y-axis intersection of the plotted data.

A further series deals with human red blood cells. Type of series: cell-based. Particulars: for EC50: red cells of human, 1 h. The method, then:
as §3

Molecules are shown by their SMILES. Square brackets hold non-standard residues; d marks the D form. Peptide text beside a SMILES is read from it. N(1-naphthylmethyl)Gly = O=C(O)CNCc1cccc2ccccc12; 1Nal = N[C@@H](Cc1cccc2ccccc12)C(=O)O; 2Nal = N[C@@H](Cc1ccc2ccccc2c1)C(=O)O; d1Nal = N[C@H](Cc1cccc2ccccc12)C(=O)O; d2Nal = N[C@H](Cc1ccc2ccccc2c1)C(=O)O; Nle = CCCC[C@H](N)C(=O)O; Nphe = O=C(O)CNCc1ccccc1; NBuGly = CCCCNCC(=O)O; Nlys = NCCCCNCC(=O)O

As for `CC(C)C[C@H](NC(=O)CN(CCCCN)C(=O)CN(CCCCN)C(=O)CNCCCCN)C(=O)N[C@@H](Cc1ccc2ccccc2c1)C(=O)N[C@@H](Cc1ccccc1)C(=O)N[C@@H](Cc1ccc2ccccc2c1)C(N)=O` [Compound 29, NLys-NLys-NLys-Leu-(2-Nal)Ala-Phe-(2-Nal)Ala] (H-[Nlys][Nlys][Nlys]L[2Nal]F[2Nal]-NH2; N-terminus assumed), the “Minimum Inhibitory Concentration MRSP C22963” value with MRSP C22963 is 4 to 8 µg/mL. Also, the “Minimum Inhibitory Concentration MSSA (ATCC 29213)” value in the series with MSSA (ATCC 29213) was in the range of 16 to 32 µg/mL. In addition, the “Minimum Inhibitory Concentration P. aeruginosa (26314)” value with P. aeruginosa (26314) is 32 µg/mL. In series [1], this molecule came in with a hemolysis at 1 h, 150 µM of 46%. In addition, the “Haemolysis EC10” value in the series with human red blood cells came to 9 µM.

With `CC(C)C[C@@H](NC(=O)[C@H](CCCCN)NC(=O)[C@H](CCCCN)NC(=O)[C@@H](N)CCCCN)C(=O)N[C@H](Cc1cccc2ccccc12)C(=O)N[C@H](Cc1ccccc1)C(=O)N[C@H](Cc1cccc2ccccc12)C(N)=O` [Compound 15, Lys-Lys-Lys-leu-(1-Nal)ala-phe-(1-Nal)ala] (H-KKK[dL][d1Nal][dF][d1Nal]-NH2; N-terminus assumed), in the series on MRSP C22963, the “Minimum Inhibitory Concentration MRSP C22963” value came out at 2 µg/mL. Moreover, the “Minimum Inhibitory Concentration MSSA (ATCC 29213)” value in the series on MSSA (ATCC 29213) worked out at 8 µg/mL. Besides, in the series on P. aeruginosa (26314), the “Minimum Inhibitory Concentration P. aeruginosa (26314)” value is 8 µg/mL. This molecule also displayed a hemolysis at 1 h, 150 µM in series [1] of 88%. Further, in the series with human red blood cells, the “Haemolysis EC10” value was found to be 8 µM and the concentration giving a half-maximal response (EC50) (in general, the concentration that produces a half-maximal response) was 40 µM.

In the case of `CCCCN(CC(=O)N[C@@H](CCCCN)C(=O)N[C@@H](CCCCN)C(=O)N[C@@H](CCCCN)C(N)=O)C(=O)CN(Cc1cccc2ccccc12)C(=O)CN(Cc1ccccc1)C(=O)CNCc1cccc2ccccc12` [Compound 4, (N1-Nal)Gly-(NPhe)Gly-(N1-Nal)Gly-(NBu)Gly-Lys-Lys-Lys] (H-[N(1-naphthylmethyl)Gly][Nphe][N(1-naphthylmethyl)Gly][NBuGly]KKK-NH2; N-terminus assumed), the “Minimum Inhibitory Concentration MRSP C22963” value in the series on MRSP C22963 was determined as 8 µg/mL. The “Minimum Inhibitory Concentration MSSA (ATCC 29213)” value with MSSA (ATCC 29213) was 16 µg/mL. Also, in the series with P. aeruginosa (26314), the “Minimum Inhibitory Concentration P. aeruginosa (26314)” value worked out at 32 µg/mL. This molecule also registered a hemolysis at 1 h, 150 µM in series [1] of 24%. Also, in the series with human red blood cells, the “Haemolysis EC10” value is listed as 54 µM.

For the molecule `CCCC[C@H](NC(=O)[C@H](CCCCN)NC(=O)[C@H](CCCCN)NC(=O)[C@@H](N)CCCCN)C(=O)N[C@@H](Cc1cccc2ccccc12)C(=O)N[C@@H](Cc1ccccc1)C(=O)N[C@@H](Cc1cccc2ccccc12)C(N)=O` [Compound 24, Lys-Lys-Lys-Nle-(1-Nal)Ala-Phe-(1-Nal)Ala] (H-KKK[Nle][1Nal]F[1Nal]-NH2; N-terminus assumed), the “Minimum Inhibitory Concentration MRSP C22963” value in the series on MRSP C22963 lay within 16 to 32 µg/mL. Besides, in the series with MSSA (ATCC 29213), the “Minimum Inhibitory Concentration MSSA (ATCC 29213)” value is >64 µg/mL. For the same molecule, the “Minimum Inhibitory Concentration P. aeruginosa (26314)” value with P. aeruginosa (26314) turned out to be 16 µg/mL. Besides, the hemolysis at 1 h, 150 µM in series [1] came to 60%. Besides, in the series on human red blood cells, the “Haemolysis EC10” value is 3 µM and a half-maximal effect (EC50) was put at 41 µM.

Regarding `CC(C)C[C@H](NC(=O)[C@H](CCCCN)NC(=O)[C@@H](N)CCCCN)C(=O)N[C@@H](CCCCN)C(=O)N[C@@H](Cc1cccc2ccccc12)C(=O)N[C@@H](Cc1ccccc1)C(=O)N[C@@H](Cc1cccc2ccccc12)C(N)=O` [Compound 6, Lys-Lys-Leu-Lys-(1-Nal)Ala-Phe-(1-Nal)Ala] (H-KKLK[1Nal]F[1Nal]-NH2; N-terminus assumed), the “Minimum Inhibitory Concentration MRSP C22963” value in the series on MRSP C22963 worked out at 8 µg/mL. Also, in the series on MSSA (ATCC 29213), the “Minimum Inhibitory Concentration MSSA (ATCC 29213)” value was found to be 32 µg/mL. For the same molecule, the “Minimum Inhibitory Concentration P. aeruginosa (26314)” value with P. aeruginosa (26314) was 8 µg/mL. Also, the hemolysis at 1 h, 150 µM in series [1] worked out at 96%. In the series on human red blood cells, the “Haemolysis EC10” value was 5 µM and the midpoint of the response, the EC50, lay at 58 µM.

Regarding `CC(C)C[C@H](NC(=O)[C@H](Cc1ccc2ccccc2c1)NC(=O)[C@H](Cc1ccccc1)NC(=O)[C@@H](N)Cc1ccc2ccccc2c1)C(=O)N[C@@H](CCCCN)C(=O)N[C@@H](CCCCN)C(=O)N[C@@H](CCCCN)C(N)=O` [Compound 13, (2-Nal)Ala-Phe-(2-Nal)Ala-Leu-Lys-Lys-Lys] (H-[2Nal]F[2Nal]LKKK-NH2; N-terminus assumed), the “Minimum Inhibitory Concentration MRSP C22963” value in the series with MRSP C22963 worked out at 8 µg/mL. In addition, the “Minimum Inhibitory Concentration MSSA (ATCC 29213)” value in the series on MSSA (ATCC 29213) stood at 32 µg/mL. In the series with P. aeruginosa (26314), the “Minimum Inhibitory Concentration P. aeruginosa (26314)” value was >64 µg/mL. This molecule also displayed a hemolysis at 1 h, 150 µM in series [1] of 15%. The “Haemolysis EC10” value in the series with human red blood cells turned out to be 110 µM.

As for `CC(C)C[C@H](NC(=O)[C@H](CCCCN)NC(=O)[C@H](CCCCN)NC(=O)[C@@H](N)CCCCN)C(=O)N[C@@H](Cc1cccc2ccccc12)C(=O)N[C@@H](Cc1ccccc1)C(=O)N[C@@H](Cc1cccc2ccccc12)C(N)=O` [Compound 7, Lys-Lys-Lys-Leu-(1-Nal)Ala-Phe-(1-Nal)Ala] (H-KKKL[1Nal]F[1Nal]-NH2; N-terminus assumed), the “Minimum Inhibitory Concentration MRSP C22963” value with MRSP C22963 came to 8 µg/mL. The “Minimum Inhibitory Concentration MSSA (ATCC 29213)” value with MSSA (ATCC 29213) came to 16 µg/mL. Moreover, in the series on P. aeruginosa (26314), the “Minimum Inhibitory Concentration P. aeruginosa (26314)” value is 16 µg/mL. The hemolysis at 1 h, 150 µM in series [1] was found to be 55%. In addition, in the series with human red blood cells, the “Haemolysis EC10” value is listed as 8 µM and the EC50 is 140 µM.

Take `CC(C)C[C@H](NC(=O)[C@H](CCCCN)NC(=O)[C@@H](N)CCCCN)C(=O)N[C@@H](CCCCN)C(=O)N[C@@H](Cc1ccc2ccccc2c1)C(=O)N[C@@H](Cc1ccccc1)C(=O)N[C@@H](Cc1ccc2ccccc2c1)C(N)=O` [Compound 8, Lys-Lys-Leu-Lys-(2-Nal)Ala-Phe-(2-Nal)Ala] (H-KKLK[2Nal]F[2Nal]-NH2; N-terminus assumed): the “Minimum Inhibitory Concentration MRSP C22963” value in the series with MRSP C22963 was determined as 8 µg/mL. Moreover, the “Minimum Inhibitory Concentration MSSA (ATCC 29213)” value in the series with MSSA (ATCC 29213) was determined as 16 µg/mL. Moreover, the “Minimum Inhibitory Concentration P. aeruginosa (26314)” value in the series on P. aeruginosa (26314) was found to be 32 µg/mL. This molecule returned a hemolysis at 1 h, 150 µM in series [1] of 34%. Moreover, the “Haemolysis EC10” value with human red blood cells is given as 56 µM.

For `CC(C)C[C@@H](NC(=O)[C@H](CCCCN)NC(=O)[C@H](CCCCN)NC(=O)[C@@H](N)CCCCN)C(=O)N[C@H](Cc1ccc2ccccc2c1)C(=O)N[C@H](Cc1ccccc1)C(=O)N[C@H](Cc1ccc2ccccc2c1)C(N)=O` [Compound 16, Lys-Lys-Lys-leu-(2-Nal)ala-phe-(2-Nal)ala] (H-KKK[dL][d2Nal][dF][d2Nal]-NH2; N-terminus assumed), the “Minimum Inhibitory Concentration MRSP C22963” value in the series on MRSP C22963 is 2 to 4 µg/mL. Also, in the series on MSSA (ATCC 29213), the “Minimum Inhibitory Concentration MSSA (ATCC 29213)” value is 8 to 16 µg/mL. Further, in the series on P. aeruginosa (26314), the “Minimum Inhibitory Concentration P. aeruginosa (26314)” value amounted to 32 µg/mL. In series [1], the hemolysis at 1 h, 150 µM came out at 60%. Moreover, in the series on human red blood cells, the “Haemolysis EC10” value was 18 µM and the EC50 amounted to 118 µM.
